According to publication PMC4579270, “Identification and Characterization of an Irreversible Inhibitor of CDK2” (Chemistry & Biology, 2015):

How the values were obtained:
Experiment in all cases: Dundee protein kinase screen
Format in all cases: biochemical
[1] = target: ABL (Homo sapiens, UniProt P00519); conditions: read-out: %Remaining activity at 1µM NU6300
Description: (§1) Prior to determining its cellular activity, we carried out a screen to assess its selectivity against a panel of 131 protein kinases under conditions that would not distinguish between a reversible or irreversible mode of action. […] These 13 kinases and 29 additional kinases, selected for their known sensitivity to other inhibitors within the purine series, were then tested in a modified screening format in which the assay was repeated following a 4-hr pre-incubation (Table S3B). […] However, conformational flexibility around the active site may promote such an interaction with a residue from another part of the structure ([Martin et al., 2012]).
(§2) Table S3, Related to Figure 4. NCL-0006300 protein kinase selectivity. (A) NU6300 was tested at a single concentration of 1µM against 131 protein kinases present in a Dundee protein kinase screen (Bain et al., 2007). Values given are % activity remaining and are the average of duplicate measurements: 0-25% (red), 26-50% (yellow), 51-80% (black) and above 81% (green). The kinase domain sequences (as defined by UniProt) of […]
(§3) have a lysine residue at a position close to CDK2 Lys88 or Lys89. However, in the structure of tyrosine-protein kinase BTK (PDB ID: 3GEN) the residue equivalent to CDK2 Asp86 is Cys481 and therefore there is the potential for a covalent adduct to be formed through this side chain. […]

[2] = system: AMPK
Description: as §1, §2, §3

[3] = target: T1, Aurora A (Homo sapiens, UniProt O14965); conditions: read-out: %Remaining activity at 1µM NU6300
T1 sequence (O14965 1-403): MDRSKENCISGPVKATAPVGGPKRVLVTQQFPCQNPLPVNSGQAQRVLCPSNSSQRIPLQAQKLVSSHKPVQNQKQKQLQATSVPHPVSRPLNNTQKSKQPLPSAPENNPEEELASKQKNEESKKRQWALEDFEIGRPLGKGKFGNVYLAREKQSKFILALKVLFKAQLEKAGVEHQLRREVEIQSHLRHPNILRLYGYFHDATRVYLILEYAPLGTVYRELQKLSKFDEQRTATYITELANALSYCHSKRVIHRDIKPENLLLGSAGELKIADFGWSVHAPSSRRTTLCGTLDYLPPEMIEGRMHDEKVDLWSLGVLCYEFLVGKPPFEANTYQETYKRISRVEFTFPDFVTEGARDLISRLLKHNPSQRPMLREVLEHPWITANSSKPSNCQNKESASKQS
Description: as §1, §2, §3

[4] = target: BRK (Homo sapiens, UniProt Q13882); conditions: read-out: %Remaining activity at 1µM NU6300
Description: as §1, §2, §3

[5] = target: CAMK1 (Homo sapiens, UniProt Q14012); conditions: CAMK1, 1µM; read-out: %Remaining activity at 1µM NU6300
Description: as §1, §2, §3

[6] = target: CDK2-Cyclin A (Homo sapiens, UniProt P24941); conditions: read-out: %Remaining activity at 1µM NU6300
Description: as §1, §2, §3

[7] = target: CLK2 (Homo sapiens, UniProt P49760); conditions: CLK2, 1µM; read-out: %Remaining activity at 1µM NU6300
Description: as §1, §2, §3

[8] = target: CSK (Homo sapiens, UniProt P41240); conditions: read-out: %Remaining activity at 1µM NU6300
Description: as §1, §2, §3

[9] = target: DDR2 (Homo sapiens, UniProt Q16832); conditions: DDR2, 1µM; read-out: %Remaining activity at 1µM NU6300
Description: as §1, §2, §3

[10] = target: EF2K (Homo sapiens, UniProt O00418); conditions: read-out: %Remaining activity at 1µM NU6300
Description: as §1, §2, §3

[11] = target: EPH-A2 (Homo sapiens, UniProt P29317); conditions: EPH-A2, 1µM; read-out: %Remaining activity at 1µM NU6300
Description: as §1, §2, §3

[12] = target: EPH-B4 (Homo sapiens, UniProt P54760); conditions: EPH-B4, 1µM; read-out: %Remaining activity at 1µM NU6300
Description: as §1, §2, §3

[13] = target: ERK2 (Homo sapiens, UniProt P28482); conditions: ERK2, 1µM; read-out: %Remaining activity at 1µM NU6300
Description: as §1, §2, §3

[14] = target: HIPK3 (Homo sapiens, UniProt Q9H422); conditions: HIPK3, 1µM; read-out: %Remaining activity at 1µM NU6300
Description: as §1, §2, §3

[15] = target: IGF-1R (Homo sapiens, UniProt P08069); conditions: read-out: %Remaining activity at 1µM NU6300
Description: as §1, §2, §3

[16] = target: IKKb (Homo sapiens, UniProt O14920); conditions: read-out: %Remaining activity at 1µM NU6300
Description: as §1, §2, §3

[17] = target: Lck (Homo sapiens, UniProt P06239); conditions: read-out: %Remaining activity at 1µM NU6300
Description: as §1, §2, §3

[18] = target: T2, MARK4 (Homo sapiens, UniProt Q96L34); conditions: MARK4, 1µM; read-out: %Remaining activity at 1µM NU6300
T2 sequence (Q96L34 1-752): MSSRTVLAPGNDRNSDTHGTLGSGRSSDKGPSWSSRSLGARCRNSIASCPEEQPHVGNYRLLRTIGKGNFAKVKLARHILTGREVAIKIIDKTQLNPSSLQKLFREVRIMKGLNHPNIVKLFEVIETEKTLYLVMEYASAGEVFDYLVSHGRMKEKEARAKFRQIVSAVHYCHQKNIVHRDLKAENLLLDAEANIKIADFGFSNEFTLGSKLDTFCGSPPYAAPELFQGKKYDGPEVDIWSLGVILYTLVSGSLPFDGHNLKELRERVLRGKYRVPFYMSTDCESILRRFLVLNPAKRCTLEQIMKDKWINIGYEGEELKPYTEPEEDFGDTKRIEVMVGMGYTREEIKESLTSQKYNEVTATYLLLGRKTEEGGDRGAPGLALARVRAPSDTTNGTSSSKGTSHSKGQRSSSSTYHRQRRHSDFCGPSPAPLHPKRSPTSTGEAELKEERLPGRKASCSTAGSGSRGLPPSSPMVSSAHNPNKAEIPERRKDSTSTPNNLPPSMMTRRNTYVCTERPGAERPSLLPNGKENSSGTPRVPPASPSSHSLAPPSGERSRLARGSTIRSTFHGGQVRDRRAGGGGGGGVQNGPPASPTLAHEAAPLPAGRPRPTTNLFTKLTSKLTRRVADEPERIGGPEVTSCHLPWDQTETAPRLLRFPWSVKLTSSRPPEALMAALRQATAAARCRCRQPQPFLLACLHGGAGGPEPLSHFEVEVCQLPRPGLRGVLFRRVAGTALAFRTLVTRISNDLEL
Description: as §1, §2, §3

Chain of CLK2 (P49760 whole entry): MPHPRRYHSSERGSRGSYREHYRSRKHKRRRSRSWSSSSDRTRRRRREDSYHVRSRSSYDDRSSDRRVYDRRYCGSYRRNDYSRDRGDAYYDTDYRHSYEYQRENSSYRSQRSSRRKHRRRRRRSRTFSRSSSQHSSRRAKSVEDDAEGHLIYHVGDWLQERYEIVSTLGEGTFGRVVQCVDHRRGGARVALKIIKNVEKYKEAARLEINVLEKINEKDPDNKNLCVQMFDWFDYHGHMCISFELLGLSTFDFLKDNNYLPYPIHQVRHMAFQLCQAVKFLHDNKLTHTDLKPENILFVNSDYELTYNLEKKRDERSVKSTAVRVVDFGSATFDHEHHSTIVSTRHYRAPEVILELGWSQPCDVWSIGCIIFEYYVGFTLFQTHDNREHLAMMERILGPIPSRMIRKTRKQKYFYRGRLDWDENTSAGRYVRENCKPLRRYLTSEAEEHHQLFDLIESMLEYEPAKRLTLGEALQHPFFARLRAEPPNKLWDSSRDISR
Chain of CSK (P41240 whole entry): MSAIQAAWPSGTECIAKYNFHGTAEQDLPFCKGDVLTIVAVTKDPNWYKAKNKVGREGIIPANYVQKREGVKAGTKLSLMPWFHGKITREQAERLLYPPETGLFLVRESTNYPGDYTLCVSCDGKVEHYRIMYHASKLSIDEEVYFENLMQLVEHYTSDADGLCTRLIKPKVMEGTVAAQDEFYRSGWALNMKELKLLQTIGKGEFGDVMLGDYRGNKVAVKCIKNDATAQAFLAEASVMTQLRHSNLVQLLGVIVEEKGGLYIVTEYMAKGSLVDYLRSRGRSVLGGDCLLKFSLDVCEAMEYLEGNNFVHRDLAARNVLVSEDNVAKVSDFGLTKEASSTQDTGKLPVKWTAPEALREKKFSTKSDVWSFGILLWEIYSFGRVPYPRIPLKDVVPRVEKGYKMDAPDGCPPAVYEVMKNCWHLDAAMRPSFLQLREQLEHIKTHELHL
Chain of IKKb (O14920 whole entry): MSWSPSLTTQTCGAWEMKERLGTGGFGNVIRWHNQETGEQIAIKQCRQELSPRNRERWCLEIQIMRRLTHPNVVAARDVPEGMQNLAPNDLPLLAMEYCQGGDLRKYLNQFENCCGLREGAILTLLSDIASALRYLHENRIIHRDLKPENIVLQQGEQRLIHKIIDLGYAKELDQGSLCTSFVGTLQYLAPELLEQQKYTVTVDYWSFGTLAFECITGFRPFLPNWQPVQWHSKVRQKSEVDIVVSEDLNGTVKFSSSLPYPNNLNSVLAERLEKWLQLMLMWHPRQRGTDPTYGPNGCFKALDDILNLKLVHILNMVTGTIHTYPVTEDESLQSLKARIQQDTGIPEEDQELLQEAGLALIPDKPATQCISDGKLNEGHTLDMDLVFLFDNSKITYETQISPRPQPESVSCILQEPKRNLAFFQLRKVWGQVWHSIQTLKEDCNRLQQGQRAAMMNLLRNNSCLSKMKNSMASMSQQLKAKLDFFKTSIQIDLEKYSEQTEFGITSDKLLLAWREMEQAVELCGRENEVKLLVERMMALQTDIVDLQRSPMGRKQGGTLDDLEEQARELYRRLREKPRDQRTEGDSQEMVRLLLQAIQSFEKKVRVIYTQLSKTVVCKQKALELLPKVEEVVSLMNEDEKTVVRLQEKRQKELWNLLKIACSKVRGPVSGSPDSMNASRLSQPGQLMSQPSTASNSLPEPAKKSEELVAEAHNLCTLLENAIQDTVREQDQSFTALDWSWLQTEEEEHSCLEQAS
Chain of HIPK3 (Q9H422 whole entry): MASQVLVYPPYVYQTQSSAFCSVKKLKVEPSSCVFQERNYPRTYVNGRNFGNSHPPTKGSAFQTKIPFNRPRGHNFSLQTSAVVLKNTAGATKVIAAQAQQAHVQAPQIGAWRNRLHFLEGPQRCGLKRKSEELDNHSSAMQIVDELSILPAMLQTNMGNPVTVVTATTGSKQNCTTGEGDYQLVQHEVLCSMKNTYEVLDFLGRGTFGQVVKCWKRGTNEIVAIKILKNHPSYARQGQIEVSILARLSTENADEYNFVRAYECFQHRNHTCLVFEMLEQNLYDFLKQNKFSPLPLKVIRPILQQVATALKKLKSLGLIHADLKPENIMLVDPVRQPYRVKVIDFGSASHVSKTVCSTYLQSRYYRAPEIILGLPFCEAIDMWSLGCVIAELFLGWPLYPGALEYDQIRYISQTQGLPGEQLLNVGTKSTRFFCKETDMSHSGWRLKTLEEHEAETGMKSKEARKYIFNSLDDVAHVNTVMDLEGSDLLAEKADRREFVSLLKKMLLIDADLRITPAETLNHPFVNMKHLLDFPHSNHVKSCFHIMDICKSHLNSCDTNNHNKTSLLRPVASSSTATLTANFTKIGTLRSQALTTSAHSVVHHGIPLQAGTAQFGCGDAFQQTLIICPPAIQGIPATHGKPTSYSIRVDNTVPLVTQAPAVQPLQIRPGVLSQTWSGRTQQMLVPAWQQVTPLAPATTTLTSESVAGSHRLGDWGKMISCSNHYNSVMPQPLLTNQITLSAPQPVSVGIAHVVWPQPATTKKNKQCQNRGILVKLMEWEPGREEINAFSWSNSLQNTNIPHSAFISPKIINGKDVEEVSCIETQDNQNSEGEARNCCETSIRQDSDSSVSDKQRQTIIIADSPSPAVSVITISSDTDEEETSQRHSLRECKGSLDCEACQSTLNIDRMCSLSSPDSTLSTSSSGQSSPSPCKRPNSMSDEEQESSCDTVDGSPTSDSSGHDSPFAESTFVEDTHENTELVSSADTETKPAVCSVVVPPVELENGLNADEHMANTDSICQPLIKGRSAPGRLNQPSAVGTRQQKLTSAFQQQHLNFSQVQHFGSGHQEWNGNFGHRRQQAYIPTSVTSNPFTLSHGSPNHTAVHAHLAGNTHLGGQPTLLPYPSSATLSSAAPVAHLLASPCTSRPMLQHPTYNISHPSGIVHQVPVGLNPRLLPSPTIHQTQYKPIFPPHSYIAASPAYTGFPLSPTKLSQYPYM
Chain of ERK2 (P28482 whole entry): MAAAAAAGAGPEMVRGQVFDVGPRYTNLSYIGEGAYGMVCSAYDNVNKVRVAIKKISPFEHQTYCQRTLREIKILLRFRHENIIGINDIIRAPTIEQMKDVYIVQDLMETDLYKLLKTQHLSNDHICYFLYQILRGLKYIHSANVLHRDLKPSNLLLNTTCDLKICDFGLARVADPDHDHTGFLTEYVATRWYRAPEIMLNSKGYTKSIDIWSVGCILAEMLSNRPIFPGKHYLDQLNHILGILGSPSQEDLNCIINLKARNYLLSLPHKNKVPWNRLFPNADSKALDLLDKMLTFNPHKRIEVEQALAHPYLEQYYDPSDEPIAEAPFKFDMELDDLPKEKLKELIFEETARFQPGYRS
Chain of EPH-A2 (P29317 24-976): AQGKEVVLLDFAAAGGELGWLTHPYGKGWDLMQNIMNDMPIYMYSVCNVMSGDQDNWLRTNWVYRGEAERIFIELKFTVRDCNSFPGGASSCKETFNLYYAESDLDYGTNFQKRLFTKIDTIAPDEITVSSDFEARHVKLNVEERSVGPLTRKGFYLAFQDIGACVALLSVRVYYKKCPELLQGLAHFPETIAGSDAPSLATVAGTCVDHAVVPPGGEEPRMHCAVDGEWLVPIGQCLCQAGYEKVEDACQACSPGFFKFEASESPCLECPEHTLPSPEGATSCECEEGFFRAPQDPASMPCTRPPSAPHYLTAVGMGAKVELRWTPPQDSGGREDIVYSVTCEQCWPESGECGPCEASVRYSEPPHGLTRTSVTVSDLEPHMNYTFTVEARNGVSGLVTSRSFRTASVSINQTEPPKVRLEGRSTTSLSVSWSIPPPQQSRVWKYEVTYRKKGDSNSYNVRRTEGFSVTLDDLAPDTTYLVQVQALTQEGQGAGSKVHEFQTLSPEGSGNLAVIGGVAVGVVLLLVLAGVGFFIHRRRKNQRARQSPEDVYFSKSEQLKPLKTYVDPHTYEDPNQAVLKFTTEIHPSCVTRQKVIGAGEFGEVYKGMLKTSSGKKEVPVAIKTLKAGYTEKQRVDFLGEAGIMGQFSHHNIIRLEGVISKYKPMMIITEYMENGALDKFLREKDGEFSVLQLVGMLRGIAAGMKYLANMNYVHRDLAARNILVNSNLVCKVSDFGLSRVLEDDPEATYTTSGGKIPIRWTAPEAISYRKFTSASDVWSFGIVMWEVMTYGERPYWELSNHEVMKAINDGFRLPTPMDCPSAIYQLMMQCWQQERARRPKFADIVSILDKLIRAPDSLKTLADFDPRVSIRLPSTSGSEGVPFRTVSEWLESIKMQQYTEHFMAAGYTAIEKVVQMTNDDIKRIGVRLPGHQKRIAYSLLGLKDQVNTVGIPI
Chain of DDR2 (Q16832 22-855): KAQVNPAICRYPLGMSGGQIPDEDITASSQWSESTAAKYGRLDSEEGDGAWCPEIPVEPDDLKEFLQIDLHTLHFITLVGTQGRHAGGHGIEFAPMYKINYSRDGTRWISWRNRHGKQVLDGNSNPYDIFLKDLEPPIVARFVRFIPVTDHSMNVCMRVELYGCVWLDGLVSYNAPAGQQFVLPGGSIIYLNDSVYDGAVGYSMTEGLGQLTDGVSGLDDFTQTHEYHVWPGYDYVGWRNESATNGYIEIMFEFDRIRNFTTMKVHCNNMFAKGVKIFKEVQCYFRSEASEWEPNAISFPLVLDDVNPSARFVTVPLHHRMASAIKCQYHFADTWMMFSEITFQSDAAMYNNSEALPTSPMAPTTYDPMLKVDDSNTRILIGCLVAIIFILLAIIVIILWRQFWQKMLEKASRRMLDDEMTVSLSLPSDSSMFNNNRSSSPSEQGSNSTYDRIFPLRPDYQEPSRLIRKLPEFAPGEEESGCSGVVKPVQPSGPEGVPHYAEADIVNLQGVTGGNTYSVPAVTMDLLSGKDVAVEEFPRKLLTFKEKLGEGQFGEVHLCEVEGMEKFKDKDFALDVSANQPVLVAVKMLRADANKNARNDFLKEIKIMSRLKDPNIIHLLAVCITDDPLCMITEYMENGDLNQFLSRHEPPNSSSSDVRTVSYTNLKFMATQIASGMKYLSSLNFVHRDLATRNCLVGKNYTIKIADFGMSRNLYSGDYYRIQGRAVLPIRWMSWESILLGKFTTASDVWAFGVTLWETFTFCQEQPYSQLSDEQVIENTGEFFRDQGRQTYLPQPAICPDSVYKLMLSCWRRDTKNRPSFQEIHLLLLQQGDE

C=CS(=O)(=O)c1ccc(Nc2nc(OCC3CCCCC3)c3nc[nH]c3n2)cc1 [NU6300, 6-(cyclohexylmethoxy)-N-(4-(vinylsulfonyl)phenyl)-9H-purin-2-amine]
remaining activity at 1 µM [1]: 56%
%Remaining activity at 1µM NU6300 [2]: 47%
remaining activity at 1 µM [3]: 18%
remaining activity at 1 µM [4]: 59%
remaining activity at 1 µM [5]: 89%
remaining activity at 1 µM [6]: 27%
remaining activity at 1 µM [7]: 27%
remaining activity at 1 µM [8]: 82%
remaining activity at 1 µM [9]: 60%
remaining activity at 1 µM [10]: 69%
remaining activity at 1 µM [11]: 91%
remaining activity at 1 µM [12]: 90%
remaining activity at 1 µM [13]: 73%
remaining activity at 1 µM [14]: 96%
remaining activity at 1 µM [15]: 79%
remaining activity at 1 µM [16]: 84%
remaining activity at 1 µM [17]: 42%
remaining activity at 1 µM [18]: 37%
